We go through 14 compounds from US20260028354A1, “TETRAHYDRONAPHTHALENE DERIVATIVES AS ESTROGEN RECEPTOR DEGRADERS” (REGENT OF THE UNIVERSITY OF MICHIGAN, priority 2022, published 2026).

The term Dmax denotes the largest share of the target that was removed. Usually DC50 stands for the concentration at which degradation of the target reaches its halfway point. By IC50 is commonly meant the midpoint of a concentration-inhibition curve.

Assay [1] has as its target ER in MCF-7 cells (Homo sapiens (Human), UniProt P03372). Kind of assay: In-cell Western (ICW) ER degradation assay in MCF-7 cells. The class given is cell-based. As to conditions: for DC50: MCF-7, ER degradation, read-out: MCF7 DC50.
For assay [2], the target named is ERα_LBD (GST) (Homo sapiens (Human), UniProt P03372). The experiment in a line: IC50 measurements for binding to ERα_LBD (GST), LanthaScreen TR-FRET competitive binding. As to conditions: ERα_LBD (GST) 4 nM, Fluormone ES2 Green tracer, 60 min; read-out: ERα HTRF IC50. As for the experimental part:
In vitro Assay: IC50 Measurements for binding to ERα_LBD (GST) • Final assay conditions: • 1. ERα_LBD (GST) protein: 4 nM • 2. Tb Anti-GST: 2 nM • 3. Fluormone ES2 Green tracer: 3 nM • 4. Incubation time: 60 min • 5. DMSO: 1% • 6. Assay buffer: Adding 1M DTT to Nuclear receptor Buffer K for final 5 mM DTT. • 7. ZPE: 1% DMSO • 8. HPE: 1 μM ARV_471 (positive control) • 9. LanthaScreen® TR-FRET ERα Competitive Binding Assay (ThermoFisher, #A^15887) • 100× Compound preparation
1) Cherry pick 2 μL 10 mM compound stock to column 1 of a 384 intermediate plate. • 2) Add 18 μL DMSO to column 1 to dilute compound to 1 mM. • 3) Transfer 10 μL 1 mM compound to column 1 of a LDV plate. • 2) Add 6 μl DMSO to column 2-10 of the LDV plate. • 3) Compounds undergo 3-fold serial dilution (3 μL+6 μL) in DMSO. • 4) Transfer 120 nL compound solution to assay plate. ZPE: 120 nL 100% DMSO • Procedure:
Complete nuclear receptor buffer K was prepared by adding 1 M DTT to nuclear receptor buffer K for a final concentration of 5 mM DTT. Complete nuclear receptor buffer K must be prepared fresh daily, 2X protein solution was prepared using complete nuclear receptor buffer K containing 8 nM ERα_LBD (GST) and 4 nM Tb Anti-GST. Then, 2X Fluormone ES2 Green tracer (6 nM) was prepared using complete nuclear receptor buffer K. Add 6 μL 2X Fluormone ES2 green tracer into a compound plate (PerkinElmer 6008289) by dragonfly with one-tips-addition. Subsequently, 6 μL 2× protein solution was added into the plate. The 384-well plate was mixed on a plate shaker and incubated at room temperature protected from light for 60 min. The plate was scaled with a cover to minimize evaporation. The plate was read at wavelengths of 520 nm and 495 nm. The TR-FRET ratio was calculated by dividing the emission signal at 520 nm by the emission signal at 495 nm. A binding curve was generated by plotting the emission ratio vs, the log [ligand]. To determine the IC50 value, fit the data using XL-fit for a sigmoidal dose-response.
In general terms: TR-FRET usually uses a lanthanide donor and a delayed reading to cut background.

The target of assay [3] is ER in T47D cells (Homo sapiens (Human), UniProt P03372). Kind of assay: In-cell Western (ICW) ER degradation assay in T47D cells. The class given is cell-based. The note with it: for DC50: ER degradation.
Assay [4] has as its target CRBN/DDB1 (Homo sapiens (Human), UniProt Q96SW2). The class given is binding. As to conditions: His tagged CRBN+DDB1, Cy5-labeled Thalidomide probe, one hour; read-out: CRBN HTRF IC50. As for the experimental part:
The binding potency was determined using HTRF assay technology (Perkin Elmer). Compounds were serially diluted in DMSO and […] volume was transferred to white 384-well plate.

The subject of assay [5] is MCF-7 cells. Kind of assay: CellTiter-Glo (CTG) cell proliferation assay in MCF-7 cells. The class given is cell-based. As to conditions: Homo sapiens, MCF7, 144 h, MCF-7 cell proliferation, Day 6. The source says: CellTiter-Glo® (CTG) Assays in MCF-7 and T47D Cell Lines.
In vitro Assay: MCF-7 and T47D CTG assay
For orientation: In ATP-based viability assays light output follows the ATP content of the culture.

Setting [6] is: MCF7, MCF-7, maximal ER degradation, 16 hrs treatment, read-out: MCF7 Dmax.
The mark [7] stands for this setting: maximal ER degradation, 16 hrs treatment, read-out: T47D Dmax.
[8] abbreviates: MCF7, read-out: MCF7 Dmax, MCF-7, maximal ER degradation, 16 hrs treatment.
[9] abbreviates: read-out: T47D Dmax, T47D, maximal ER degradation, 16 hrs treatment.

Where two headings read alike, the source gives them in different places.

Chain of ERα_LBD (GST) (P03372 311-547): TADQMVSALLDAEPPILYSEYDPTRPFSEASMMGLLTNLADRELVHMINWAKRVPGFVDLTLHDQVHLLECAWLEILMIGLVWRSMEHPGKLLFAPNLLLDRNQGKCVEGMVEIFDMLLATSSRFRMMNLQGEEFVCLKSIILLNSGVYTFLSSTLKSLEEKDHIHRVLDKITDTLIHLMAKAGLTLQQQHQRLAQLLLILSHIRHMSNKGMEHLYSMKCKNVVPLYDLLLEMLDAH
Chain of ER in MCF-7 cells (P03372 whole entry): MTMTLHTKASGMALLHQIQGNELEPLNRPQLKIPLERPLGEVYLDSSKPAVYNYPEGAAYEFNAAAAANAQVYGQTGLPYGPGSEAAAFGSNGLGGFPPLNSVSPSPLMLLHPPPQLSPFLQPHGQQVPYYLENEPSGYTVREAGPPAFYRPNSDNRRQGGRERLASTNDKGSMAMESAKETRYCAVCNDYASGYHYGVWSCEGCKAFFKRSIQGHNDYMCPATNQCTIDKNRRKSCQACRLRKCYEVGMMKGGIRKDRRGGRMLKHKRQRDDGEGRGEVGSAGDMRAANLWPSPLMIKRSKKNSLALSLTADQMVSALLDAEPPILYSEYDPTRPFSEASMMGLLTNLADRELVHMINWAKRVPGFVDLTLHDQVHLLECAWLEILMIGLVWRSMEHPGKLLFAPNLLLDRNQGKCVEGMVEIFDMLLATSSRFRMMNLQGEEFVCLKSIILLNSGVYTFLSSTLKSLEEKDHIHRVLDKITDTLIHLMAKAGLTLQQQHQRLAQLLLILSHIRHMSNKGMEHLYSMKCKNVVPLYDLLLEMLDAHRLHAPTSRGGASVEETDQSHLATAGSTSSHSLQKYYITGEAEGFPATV
Chain of ER in T47D cells (P03372 whole entry): as above
Chain of CRBN/DDB1 (Q96SW2 whole entry, species assumed): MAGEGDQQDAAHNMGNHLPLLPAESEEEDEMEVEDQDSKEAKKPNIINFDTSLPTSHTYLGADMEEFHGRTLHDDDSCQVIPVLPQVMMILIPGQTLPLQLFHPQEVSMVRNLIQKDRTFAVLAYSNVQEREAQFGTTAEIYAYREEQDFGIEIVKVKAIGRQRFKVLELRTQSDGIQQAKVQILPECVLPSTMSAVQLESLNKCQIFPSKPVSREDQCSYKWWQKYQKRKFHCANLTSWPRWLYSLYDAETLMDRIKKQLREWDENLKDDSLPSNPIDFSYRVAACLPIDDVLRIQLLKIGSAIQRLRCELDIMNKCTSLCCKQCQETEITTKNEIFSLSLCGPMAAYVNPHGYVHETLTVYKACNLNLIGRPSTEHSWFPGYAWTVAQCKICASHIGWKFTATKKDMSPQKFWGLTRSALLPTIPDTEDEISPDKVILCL
Chain of CRBN/DDB1 (Q16531 whole entry partner, species assumed): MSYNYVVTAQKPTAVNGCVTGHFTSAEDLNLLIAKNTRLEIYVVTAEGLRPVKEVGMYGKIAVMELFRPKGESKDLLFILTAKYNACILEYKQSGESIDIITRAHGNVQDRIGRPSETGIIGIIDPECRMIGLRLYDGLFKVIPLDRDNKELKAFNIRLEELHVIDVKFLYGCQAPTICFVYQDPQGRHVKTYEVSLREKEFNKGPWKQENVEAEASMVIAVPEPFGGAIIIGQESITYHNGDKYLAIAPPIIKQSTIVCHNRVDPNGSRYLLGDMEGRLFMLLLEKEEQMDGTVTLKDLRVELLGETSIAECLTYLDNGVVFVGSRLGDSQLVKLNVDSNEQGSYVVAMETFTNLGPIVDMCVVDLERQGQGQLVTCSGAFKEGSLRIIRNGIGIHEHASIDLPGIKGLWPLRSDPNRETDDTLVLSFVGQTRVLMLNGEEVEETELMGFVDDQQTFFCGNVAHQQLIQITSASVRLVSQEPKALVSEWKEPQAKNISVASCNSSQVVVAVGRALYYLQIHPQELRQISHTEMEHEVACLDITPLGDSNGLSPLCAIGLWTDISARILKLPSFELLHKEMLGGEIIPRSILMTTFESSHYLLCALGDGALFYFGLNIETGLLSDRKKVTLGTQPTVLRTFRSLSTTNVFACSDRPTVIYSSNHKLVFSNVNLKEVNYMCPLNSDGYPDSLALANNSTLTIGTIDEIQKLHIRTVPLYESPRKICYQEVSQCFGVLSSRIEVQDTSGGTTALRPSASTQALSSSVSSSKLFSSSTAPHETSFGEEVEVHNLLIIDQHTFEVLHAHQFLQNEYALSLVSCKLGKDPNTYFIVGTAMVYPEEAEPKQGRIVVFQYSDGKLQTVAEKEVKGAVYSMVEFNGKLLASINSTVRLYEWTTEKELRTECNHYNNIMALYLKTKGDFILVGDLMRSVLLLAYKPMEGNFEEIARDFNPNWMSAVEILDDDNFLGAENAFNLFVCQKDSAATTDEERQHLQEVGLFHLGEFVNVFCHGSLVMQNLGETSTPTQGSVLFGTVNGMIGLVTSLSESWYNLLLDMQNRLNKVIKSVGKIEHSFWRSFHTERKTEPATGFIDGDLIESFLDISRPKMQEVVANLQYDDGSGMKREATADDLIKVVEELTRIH

`COc1cc(N2CCC3(CC2)CC(CN2CCC(c4ccc(N[C@H]5CCC(=O)NC5=O)cc4)CC2)C3)c(F)cc1[C@@H]1c2ccc(O)cc2CC[C@@H]1c1ccccc1` (single isomer, unassigned) [Compound A30]: the figures for the Dmax in assay [1] (setting [6]) and in assay [3] (setting [7]) were 50 to 75% and above 75%, respectively. Also, the DC50 in assay [1] (16 hrs treatment) and in assay [3] (16 hrs treatment) was below 1 nM in each case. For the same compound, the IC50 in assay [2] was below 10 nM.
In the case of `COc1cc(N2CCC3(CC2)CC(CN2CCN4c5ccc6c(c5OC[C@H]4C2)CN([C@H]2CCC(=O)NC2=O)C6=O)CO3)ccc1[C@H]1c2ccc(O)cc2CC[C@H]1c1ccccc1` (single isomer, unassigned) [Compound A52], the values for the Dmax in assay [1] (setting [8]) and in assay [3] (setting [9]) were 50 to 75% and above 75%, respectively. Moreover, the half-maximal degradation concentration (DC50) in assay [1] (16 hrs treatment) and in assay [3] (16 hrs treatment) was below 1 nM throughout. In addition, in assay [2], the IC50 is below 10 nM.
As to `COc1cc(N2CCC3(CC2)CC(CN2CCC4(CC2)COc2cc5c(cc24)CN([C@H]2CCC(=O)NC2=O)C5=O)C3)c(F)cc1[C@@H]1c2ccc(O)cc2CC[C@@H]1c1ccccc1` [Compound A129, (S)-3-(1′-((7-(2-fluoro-4-((1S,2S)-6-hydroxy-2-phenyl-1,2,3,4-tetrahydronaphthalen-1-yl)-5-methoxyphenyl)-7-azaspiro[3.5]nonan-2-yl)methyl)-7-oxo-5,7-dihydro-2H,6H-spiro[furo[2,3-f]isoindole-3,4′-piperidin]-6-yl)piperidine-2,6-dione], the Dmax in assay [1] (setting [8]) and in assay [3] (setting [9]) was above 75% throughout. Moreover, the DC50 in assay [1] (16 hrs treatment) and in assay [3] (16 hrs treatment) was below 1 nM throughout. Also, in assay [2], the IC50 was below 10 nM.
For `COc1cc(N2CCC(CN3CCC4(CC3)COc3cc5c(cc34)CN([C@H]3CCC(=O)NC3=O)C5=O)CC2)ccc1[C@@H]1c2ccc(O)cc2CC[C@@H]1c1ccccc1` [Compound A33, (R)-3-(1′-((1-(4-((1R,2R)-6-hydroxy-2-phenyl-1,2,3,4-tetrahydronaphthalen-1-yl)-3-methoxyphenyl)piperidin-4-yl)methyl)-7-oxo-5,7-dihydro-2H,6H-spiro[furo[2,3-f]iso-indole-3,4′-piperidin]-6-yl)-piperidine-2,6-dione], the Dmax in assay [1] (setting [8]) and in assay [3] (setting [9]) was 50 to 75% each time. Besides, the DC50 in assay [1] (16 hrs treatment) and in assay [3] (16 hrs treatment) was below 1 nM in each case. In assay [2], the IC50 was below 10 nM.
Regarding `O=C1CC[C@H](N2Cc3c(ccc4c3OC[C@H]3CN(CC5CCC6(CC5)CN(c5ccc([C@@H]7c8ccc(O)cc8CC[C@@H]7c7ccccc7)cn5)C6)CCN43)C2=O)C(=O)N1` (single isomer, unassigned) [Compound A123], the Dmax in assay [1] (setting [6]) and in assay [3] (setting [7]) was above 75% in each case. Moreover, the IC50 in assay [2] is below 10 nM.
Consider `COc1cc(N2CCC3(CC2)CC(CN2CCC(c4ccc(N[C@H]5CCC(=O)NC5=O)cc4)CC2)C3)c(F)cc1[C@H]1c2ccc(O)cc2CC[C@H]1c1ccccc1` (single isomer, unassigned) [Compound A32], for which the Dmax in assay [1] (setting [6]) and in assay [3] (setting [7]) was 50 to 75% each time. Besides, the DC50 in assay [1] (16 hrs treatment) and in assay [3] (16 hrs treatment) was 10 to 100 nM throughout. In addition, the IC50 in assay [2] was above 100 nM.
`COc1cc(N2CCC3(CC2)CC(CN2CCN4c5cc6c(cc5OC[C@@H]4C2)C(=O)N([C@H]2CCC(=O)NC2=O)C6)C3)c(F)cc1[C@@H]1c2ccc(O)cc2CC[C@@H]1c1ccccc1` [Compound A101, (S)-3-((S)-3-((7-(2-fluoro-4-((1S,2S)-6-hydroxy-2-phenyl-1,2,3,4-tetrahydronaphthalen-1-yl)-5-methoxyphenyl)-7-azaspiro[3.5]nonan-2-yl)methyl)-8-oxo-1,2,3,4,4a,5,8,10-octahydro-9H-pyrazino[1′,2′: 4,5][1,4]oxazino[2,3-f]isoindol-9-yl)piperidine-2,6-dione]: the Dmax in assay [1] (setting [6]) was above 75%. In assay [1] (16 hrs treatment), the DC50 is below 1 nM. Also, the IC50 in assay [2] is below 10 nM.
For `COc1cc(N2CCC3(CC2)C[C@@H](CN2CCN4c5ccc6c(c5OC[C@H]4C2)CN([C@H]2CCC(=O)NC2=O)C6=O)CO3)ccc1[C@@H]1c2ccc(O)cc2CC[C@@H]1c1ccccc1` (single isomer, unassigned) [Compound A134], in assay [1] (setting [6]), the Dmax is above 75%. Further, the DC50 in assay [1] (16 hrs treatment) is below 1 nM. Further, in assay [2], the IC50 was below 10 nM.
As to `O=C1CC[C@@H](Nc2ccc(C3CCN(CC4CCC5(CC4)CN(c4ccc([C@@H]6c7ccc(O)cc7CC[C@@H]6c6ccccc6)cc4)C5)CC3)cc2)C(=O)N1` (single isomer, unassigned) [Compound A65], the Dmax in assay [1] (setting [6]) was 50 to 75%; in assay [3] (setting [7]), above 75%. The figures for the DC50 in assay [1] (16 hrs treatment) and in assay [3] (16 hrs treatment) were 1 to 10 nM and below 1 nM, respectively. The figures for the IC50 in assay [4] and in assay [5] were 50 to 500 nM and 10 to 100 nM, respectively.
For “(S)-3-(1′-((2-(2-fluoro-4-((1S,2S)-6-hydroxy-2-phenyl-1,2,3,4-tetrahydronaphthalen-1-yl)-5-methoxyphenyl)-2-azaspiro[3.5]nonan-7-yl)methyl)-7-oxo-5,7-dihydro-2H,6H-spiro[furo[2,3-f]isoindole-3,4′-piperidin]-6-yl)piperidine-2,6-dione [Compound A166]”, the DC50 in assay [1] (16 hrs treatment) was below 1 nM. In addition, the “MCF7 Dmax” value in assay [1] (MCF-7, maximal ER degradation, 16 hrs treatment) is “B (“B”: >50 and <75%)”. Further, in assay [2], the IC50 was below 10 nM.
With `COc1c([C@@H]2c3ccc(O)cc3CC[C@@H]2c2ccccc2)ccc(N2CCC(CN3CCC4(CC3)COc3cc5c(cc34)CN([C@H]3CCC(=O)NC3=O)C5=O)CC2)c1F` [Compound A191, (S)-3-(1′-((1-(2-fluoro-4-((1S, 2S)-6-hydroxy-2-phenyl-1,2,3,4-tetrahydronaphthalen-1-yl)-3-methoxyphenyl)piper-idin-4-yl)methyl)-7-oxo-5,7-dihydro-2H,6H-spiro[furo[2,3-f]isoindole-3,4′-piperidin]-6-yl)piperidine-2,6-dione], the Dmax in assay [1] (setting [8]) lay within 50 to 75%. Besides, the DC50 in assay [1] (16 hrs treatment) was below 1 nM. Also, the IC50 in assay [5] was 10 to 100 nM.
Take `COc1cc(N2CCC3(CC2)CC(CN2CCN4c5cc6c(cc5OC[C@@H]4C2)C(=O)N([C@H]2CCC(=O)NC2=O)C6)C3)ccc1[C@@H]1c2ccc(O)cc2CC[C@@H]1c1ccccc1` (single isomer, unassigned) [Compound A12]: the Dmax in assay [1] (setting [6]) and in assay [3] (setting [7]) was above 75% each time. The DC50 in assay [1] (16 hrs treatment) and in assay [3] (16 hrs treatment) was below 1 nM throughout. The IC50 lay within 50 to 500 nM in assay [4] and 10 to 100 nM in assay [5].
Regarding `COc1cc(N2CCC3(CC[C@H](CN4CCC5(CC4)COc4c5cc(C)c5c4CN([C@H]4CCC(=O)NC4=O)C5=O)CO3)CC2)c(F)cc1[C@@H]1c2ccc(O)cc2CC[C@@H]1c1ccccc1` [Compound A230, (S)-3-(1′-(((R)-9-(2-fluoro-4-((1S,2S)-6-hydroxy-2-phenyl-1,2,3,4-tetrahydronaphthalen-1-yl)-5-methoxyphenyl)-1-oxa-9-azaspiro[5.5]undecan-3-yl)methyl)-5-methyl-6-oxo-6,8-dihydro-2H,7H-spiro[furo[2,3-e]isoindole-3,4′-piperidin]-7-yl)piperidine-2,6-dione], in assay [1] (setting [8]), the Dmax is above 75%. For the same compound, the DC50 in assay [1] (16 hrs treatment) is below 1 nM. This compound also gave an IC50 in assay [5] below 10 nM.
Regarding `COc1cc(N2CCC3(CC2)C[C@H](CN2CCN4c5ccc6c(c5OC[C@H]4C2)CN([C@H]2CCC(=O)NC2=O)C6=O)CO3)ccc1[C@@H]1c2ccc(O)cc2CC[C@@H]1c1ccccc1` (single isomer, unassigned) [Compound A133], the Dmax in assay [1] (setting [6]) is above 75%. Also, the DC50 in assay [1] (16 hrs treatment) is below 1 nM. Further, the IC50 in assay [2] is below 10 nM.
